Assay: RP-HPTLC retention (RM0, lipophilicity parameter) on RP-18W/UV254 plates
Type: physicochemical
Method: Precoated RP-18W/UV254 plates (Macherey-Nagel GmbH and Co., Düren, Germany) were used for RP HPTLC analysis. Investigated solvent mixtures used as mobile phases: acetone-water (φ = 0.5 - 0.8; v/v), acetonitrile-water (φ = 0.5 - 0.9; v/v), methanol-water (φ = 0.65 - 0.95; v/v), 2-propanol-water (φ = 0.4 - 0.7; v/v), tetrahydrofuran-water (φ = 0.5 - 0.75; v/v).
The investigated compounds were dissolved in an appropriate solvent, methanol, 1 mg mL^-1) and the solutions (0.2 μL) were separately spotted into the plates. All the reagents used were of analytical purity. The plates were developed by the ascending technique at room temperature without previous saturation of the chamber with mobile phase. All measurements were carried out at ambient temperature. After drying of the plates, the spots were visualized under UV light at λ = 254 nm. RF values were calculated as average from three measurements for each solute-mobile phase combination. For subsequent calculations mean RM values were used; these were calculated by using the formula:
Equation (1) RM=log(1/RF-1)
The calculated RM values for different concentrations of organic solvent were used to check the linearity of their relationship with the volume fraction of organic modifier according to the equation ([23]):
Where φ is the volume fraction of organic solvent in the mobile phase, RM^0 is the intercept obtained by extrapolation to φ = 0% of modifier, and S is the slope of the linear plot. Equations (1) and (2) served for deriving data for further QSAR studies.

[1] = RP-18W/UV254, 2-propanol – water (φ = 0.4 - 0.7)
[2] = RP-18W/UV254, acetone – water (φ = 0.5 - 0.8)
[3] = RP-18W/UV254, acetonitrile – water (φ = 0.5 - 0.9)
[4] = RP-18W/UV254, methanol – water (φ = 0.65 - 0.95)
[5] = RP-18W/UV254, tetrahydrofuran - water (φ = 0.5 - 0.75)

Structure (SMILES) | RM^0 (retention parameter, intercept at φ = 0% modifier) [1] | RM^0 (retention parameter, intercept at φ = 0% modifier) [2] | RM^0 (retention parameter, intercept at φ = 0% modifier) [3] | RM^0 (retention parameter, intercept at φ = 0% modifier) [4] | RM^0 (retention parameter, intercept at φ = 0% modifier) [5]
CC1(Nc2nc(Cl)nc(NC3(C)CCCC3)n2)CCCC1 [II.1] | 2.183 | 3.743 | 2.388 | 3.181 | 3.289
CC(Nc1nc(Cl)nc(NC(C)c2ccc(Br)cc2)n1)c1ccc(Br)cc1 (centres unmarked) [I.4] | 2.764 | 4.303 | 2.896 | 4.407 | 3.351
CC(Nc1nc(Cl)nc(NC(C)c2ccc(Cl)cc2)n1)c1ccc(Cl)cc1 (centres unmarked) [I.3] | 2.617 | 3.839 | 2.887 | 3.976 | 3.538
CC(Nc1nc(Cl)nc(NC(C)c2ccccc2)n1)c1ccccc1 (centres unmarked) [I.1] | 1.900 | 3.185 | 2.110 | 2.457 | 3.439
CC1(Nc2nc(Cl)nc(NC3(C)CCCCCC3)n2)CCCCCC1 [II.3] | 3.013 | 4.218 | 3.000 | 4.530 | 4.071
Cc1ccc(C(C)Nc2nc(Cl)nc(NC(C)c3ccc(C)cc3)n2)cc1 (centres unmarked) [I.2] | 2.525 | 3.580 | 2.786 | 3.188 | 3.567
Clc1nc(NC2CCCCC2)nc(N(c2ccccc2)C2CCCCC2)n1 [III.3] | 2.691 | 4.019 | 3.101 | 3.980 | 3.387
CC1(Nc2nc(Cl)nc(NC3(C)CCCCC3)n2)CCCCC1 [II.2] | 2.384 | 3.935 | 2.753 | 3.320 | 3.401
Clc1nc(NC2CCCCC2)nc(NC2CCCCC2)n1 [III.1] | 2.251 | 4.118 | 2.356 | 3.440 | 3.426
CN(c1nc(Cl)nc(N(C)C2CCCCC2)n1)C1CCCCC1 [III.2] | 2.769 | 4.626 | 3.284 | 3.998 | 3.611
Clc1nc(N(c2ccccc2)C2CCCCC2)nc(N(c2ccccc2)C2CCCCC2)n1 [III.4] | 2.747 | 4.693 | 3.556 | 5.295 | 3.902
CC1(Nc2nc(Cl)nc(Cl)n2)CCCC1 [IV.1] | 1.118 | 1.672 | 1.497 | 1.526 | 1.733
CC1(Nc2nc(Cl)nc(Cl)n2)CCCCCC1 [IV.3] | 1.779 | 2.257 | 1.956 | 1.756 | 2.222
